# Values quoted from earlier work in article PMC3983144 (Bioconjugate chemistry, 2014).
# Square brackets hold non-standard residues; d marks the D form. Nle = CCCC[C@H](N)C(=O)O
# Tested on: MC1R
# Conditions: B16F1 melanoma cells
substance,measurement,value
Ac-[Nle]DH[dF]RWGK-NH2 [NAPamide],IC50,0.27 nM
